The text below walks through data of patent US20240101531A1, “PYRIDINAMINE DERIVATIVES AND THEIR USE AS POTASSIUM CHANNEL MODULATORS” (Xenon Pharmaceuticals Inc., priority 2022, published 2024).

The target in the experiment is human KV7.2/KV7.3 (Homo sapiens (Human), UniProt O43525+O43526). The experiment can be described thus: Potassium flux assay (IPG-2 AM dye). The class given is cell-based. Conditions: TREX HEK 293 or HEK 293 cells expressing human KV7.2/KV7.3; arithmetic mean values. The method in brief: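 EC50 from 16 concentrations (2-fold dilutions, top 30 μM), scaled between DMSO baseline and a known KV7.x modulator maximum. Signal is IPG-2 AM fluorescence (ex 530/em 558 nm) after 10 mM KCl challenge buffer addition, following 20 min room-temperature compound exposure of HEK 293 or TREX HEK 293 cells stably expressing human KV7.2/KV7.3.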

Molecules are shown by their SMILES.

For orientation: EC50 means the midpoint of the concentration-response curve. As to `Clc1ccc(Nc2nccc3cc(OC4CCN(Cc5ncccn5)CC4)ccc23)cn1` [Example 314, N-(6-chloropyridin-3-yl)-6-((1-(pyrimidin-2-ylmethyl)piperidin-4-yl)oxy)isoquinolin-1-amine], the EC50 is 1000 to 10000 nM. With `FC(F)CN1CCC(Oc2ccc3c(Nc4ccc(Cl)nc4)nccc3c2)CC1` [Example 315, N-(6-chloropyridin-3-yl)-6-((1-(2,2-difluoroethyl)piperidin-4-yl)oxy)isoquinolin-1-amine], the EC50 was 1000 to 10000 nM. Then `CC(=O)N[C@H]1CC[C@@H](Oc2ccc3c(Nc4ccc(Cl)nc4)nccc3c2)CC1` [Example 316, N-(cis-4-((1-((6-chloropyridin-3-yl)amino)isoquinolin-6-yl)oxy)cyclohexyl)acetamide], with less than 1000 nM; and `CC(=O)N[C@H]1CC[C@H](Oc2ccc3c(Nc4ccc(Cl)nc4)nccc3c2)CC1` [Example 317, N-(trans-4-((1-((6-chloropyridin-3-yl)amino)isoquinolin-6-yl)oxy)cyclohexyl)acetamide], with 1000 to 10000 nM. Next, `CC(=O)N1CCC(COc2ccc3c(Nc4ccc(Cl)nc4)nccc3c2)CC1` [Example 318, 1-(4-(((1-((6-chloropyridin-3-yl)amino)isoquinolin-6-yl)oxy)methyl)piperidin-1-yl)ethan-1-one]: less than 1000 nM; `C[C@@H]1CN(CCOc2ccc3c(Nc4ccc(Cl)nc4)nccc3c2)C[C@H](C)O1` [Example 319, N-(6-chloropyridin-3-yl)-6-(2-((2S,6R)-2,6-dimethylmorpholino)ethoxy)isoquinolin-1-amine]: 1000 to 10000 nM; `COC(=O)C1COCCN1CCOc1ccc2c(Nc3ccc(Cl)nc3)nccc2c1` (centres unmarked) [Example 320, methyl 4-(2-((1-((6-chloropyridin-3-yl)amino)isoquinolin-6-yl)oxy)ethyl)morpholine-3-carboxylate]: 1000 to 10000 nM. Then `C[C@H]1COCCN1CCOc1ccc2c(Nc3ccc(Cl)nc3)nccc2c1` [Example 321, (S)-N-(6-chloropyridin-3-yl)-6-(2-(3-methylmorpholino)ethoxy)isoquinolin-1-amine], with 1000 to 10000 nM; and `C[C@@H]1COCCN1CCOc1ccc2c(Nc3ccc(Cl)nc3)nccc2c1` [Example 322, (R)-N-(6-chloropyridin-3-yl)-6-(2-(3-methylmorpholino)ethoxy)isoquinolin-1-amine], with 1000 to 10000 nM.

As for `CC1CN(CCOc2ccc3c(Nc4ccc(Cl)nc4)nccc3c2)CCO1` (centres unmarked) [Example 323, N-(6-chloropyridin-3-yl)-6-(2-(2-methylmorpholino)ethoxy)isoquinolin-1-amine], the EC50 was in the range of 1000 to 10000 nM. For `Cc1ncc(Nc2nccc3cc(OCc4cnn(C)c4)ccc23)cc1O` [Example 324, 2-methyl-5-((6-((1-methyl-1H-pyrazol-4-yl)methoxy)isoquinolin-1-yl)amino)pyridin-3-ol], the EC50 lay within 1000 to 10000 nM. Then `FC(F)(F)CN1CC(Oc2ccc3c(Nc4ccc(Cl)nc4)nccc3c2)C1` [Example 325, N-(6-chloropyridin-3-yl)-6-((1-(2,2,2-trifluoroethyl)azetidin-3-yl)oxy)isoquinolin-1-amine], with 1000 to 10000 nM; and `FC(F)C1(COc2ccc3c(Nc4ccc(Cl)nc4)nccc3c2)CC1` [Example 326, N-(6-chloropyridin-3-yl)-6-((1-(difluoromethyl)cyclopropyl)methoxy)isoquinolin-1-amine], with less than 1000 nM. Then `FC(F)C1(COc2ccc3c(Nc4ccc(Cl)nc4)nccc3c2)COC1` [Example 327, N-(6-chloropyridin-3-yl)-6-((3-(difluoromethyl)oxetan-3-yl)methoxy)isoquinolin-1-amine], with less than 1000 nM; and `CCC1(COc2ccc3c(Nc4ccc(Cl)nc4)nccc3c2)COC1` [Example 328, N-(6-chloropyridin-3-yl)-6-((3-ethyloxetan-3-yl)methoxy)isoquinolin-1-amine], with less than 1000 nM; and `OCC1(COc2ccc3c(Nc4ccc(Cl)nc4)nccc3c2)COC1` [Example 329, (3-(((1-((6-chloropyridin-3-yl)amino)isoquinolin-6-yl)oxy)methyl)oxetan-3-yl)methanol], with 1000 to 10000 nM.

`OC12CC3CC(C1)CC(Oc1ccc4c(Nc5ccc(Cl)nc5)nccc4c1)(C3)C2` [Example 331, 3-((1-((6-chloropyridin-3-yl)amino)isoquinolin-6-yl)oxy)adamantan-1-ol]: the EC50 is less than 1000 nM. As for `Clc1ccc(Nc2nccc3cc(OCC4CC45CCC5)ccc23)cn1` (centres unmarked) [Example 332, N-(6-chloropyridin-3-yl)-6-(spiro[2.3]hexan-1-ylmethoxy)isoquinolin-1-amine], the EC50 is 1000 to 10000 nM. Then `N#CC1(COc2ccc3c(Nc4ccc(Cl)nc4)nccc3c2)CC2(COC2)C1` [Example 333, 6-(((1-((6-chloropyridin-3-yl)amino)isoquinolin-6-yl)oxy)methyl)-2-oxaspiro[3.3]heptane-6-carbonitrile], with less than 1000 nM; and `Clc1ccc(Nc2nccc3cc(OCc4cn[nH]c4)ccc23)cn1` [Example 334, 6-((1H-pyrazol-4-yl)methoxy)-N-(6-chloropyridin-3-yl)isoquinolin-1-amine], with less than 1000 nM; and `CC(Oc1ccc2c(Nc3ccc(Cl)nc3)nccc2c1)c1cn[nH]c1` (centres unmarked) [Example 335, 6-(1-(1H-pyrazol-4-yl)ethoxy)-N-(6-chloropyridin-3-yl)isoquinolin-1-amine], with 1000 to 10000 nM. Next, `COCCn1cc(COc2ccc3c(Nc4ccc(Cl)nc4)nccc3c2)cn1` [Example 336, N-(6-chloropyridin-3-yl)-6-((1-(2-methoxyethyl)-1H-pyrazol-4-yl)methoxy)isoquinolin-1-amine]: 1000 to 10000 nM; `Clc1ccc(Nc2nccc3cc(OCc4c[nH]nc4Cl)ccc23)cn1` [Example 337, 6-((3-chloro-1H-pyrazol-4-yl)methoxy)-N-(6-chloropyridin-3-yl)isoquinolin-1-amine]: 1000 to 10000 nM. Then `Cc1n[nH]c(C)c1COc1ccc2c(Nc3ccc(Cl)nc3)nccc2c1` [Example 338, N-(6-chloropyridin-3-yl)-6-((3,5-dimethyl-1H-pyrazol-4-yl)methoxy)isoquinolin-1-amine], with 1000 to 10000 nM; and `Cc1ncc(Nc2nccc3cc(O[C@H]4CCC[C@@H](O)C4)ccc23)cn1` [Example 339, (1R,3S)-3-((1-((2-methylpyrimidin-5-yl)amino)isoquinolin-6-yl)oxy)cyclohexan-1-ol], with less than 1000 nM; and `Cc1ncc(Nc2nccc3cc(O[C@@H]4CCC[C@H](O)C4)ccc23)cn1` [Example 340, (1 S,3R)-3-((1-((2-methylpyrimidin-5-yl)amino)isoquinolin-6-yl)oxy)cyclohexan-1-ol], with less than 1000 nM. With `CC1(CCc2ccc3c(Nc4ccc(Cl)nc4)nccc3c2)COC1` [Example 341, N-(6-chloropyridin-3-yl)-6-(2-(3-methyloxetan-3-yl)ethyl)isoquinolin-1-amine], the EC50 was in the range of 1000 to 10000 nM. In the case of `N#C[C@H]1CCC[C@H](Oc2ccc3c(Nc4ccc(Cl)nc4)nccc3c2)C1` [Example 342, (1 S,3S)-3-((1-((6-chloropyridin-3-yl)amino)isoquinolin-6-yl)oxy)cyclohexane-1-carbonitrile], the EC50 fell in the range of 1000 to 10000 nM.

Take `N#C[C@@H]1CCC[C@H](Oc2ccc3c(Nc4ccc(Cl)nc4)nccc3c2)C1` [Example 343, (1R,3S)-3-((1-((6-chloropyridin-3-yl)amino)isoquinolin-6-yl)oxy)cyclohexane-1-carbonitrile]: the EC50 lay in the range of 1000 to 10000 nM.

Consider `N#C[C@@H]1CCC[C@@H](Oc2ccc3c(Nc4ccc(Cl)nc4)nccc3c2)C1` [Example 344, (1R,3R)-3-((1-((6-chloropyridin-3-yl)amino)isoquinolin-6-yl)oxy)cyclohexane-1-carbonitrile], for which the EC50 lay within 1000 to 10000 nM.

`N#C[C@H]1CCC[C@@H](Oc2ccc3c(Nc4ccc(Cl)nc4)nccc3c2)C1` [Example 345, (1 S,3R)-3-((1-((6-chloropyridin-3-yl)amino)isoquinolin-6-yl)oxy)cyclohexane-1-carbonitrile]: the EC50 fell in the range of 1000 to 10000 nM. As to `O[C@@H]1CCC[C@H](Oc2ccc3c(Nc4ccc(Cl)nc4)nccc3c2)C1` [Example 346, (1R,3S)-3-((1-((6-chloropyridin-3-yl)amino)isoquinolin-6-yl)oxy)cyclohexan-1-ol], the EC50 is less than 1000 nM. Next, `O[C@H]1CCC[C@@H](Oc2ccc3c(Nc4ccc(Cl)nc4)nccc3c2)C1` [Example 347, (1 S,3R)-3-((1-((6-chloropyridin-3-yl)amino)isoquinolin-6-yl)oxy)cyclohexan-1-ol]: less than 1000 nM; `N#CC1(COc2ccc3c(Nc4cnc(Cl)nc4)nccc3c2)CC12CC2` (centres unmarked) [Example 349, 1-(((1-((2-chloropyrimidin-5-yl)amino)isoquinolin-6-yl)oxy)methyl)spiro[2.2]pentane-1-carbonitrile]: less than 1000 nM. Then `O[C@H]1CC[C@H](Oc2ccc3c(Nc4ccc(Cl)nc4)nccc3c2)CC1` [Example 350, (1r,4r)-4-((1-((6-chloropyridin-3-yl)amino)isoquinolin-6-yl)oxy)cyclohexan-1-ol], with 1000 to 10000 nM; and `CC1(C)CC1(C#N)COc1ccc2c(Nc3cnc(Cl)nc3)nccc2c1` (centres unmarked) [Example 351, 1-(((1-((2-chloropyrimidin-5-yl)amino)isoquinolin-6-yl)oxy)methyl)-2,2-dimethylcyclopropane-1-carbonitrile], with less than 1000 nM. Next, `Cc1c(COc2ccc3c(Nc4cnc(Cl)nc4)nccc3c2)cnn1C` [Example 352, N-(2-chloropyrimidin-5-yl)-6-((1,5-dimethyl-1H-pyrazol-4-yl)methoxy)isoquinolin-1-amine]: less than 1000 nM. Regarding `Cc1ncc(Nc2nccc3cc(OCc4cnn(C)c4C)ccc23)cn1` [Example 353, 6-((1,5-dimethyl-1H-pyrazol-4-yl)methoxy)-N-(2-methylpyrimidin-5-yl)isoquinolin-1-amine], the EC50 is less than 1000 nM.
